In the supplement of paper PMC12350171:

Experiments:
[1] = test system: Bacteroides fragilis NT; test: IC25 growth inhibition; higher = less potent
Summary of the method: (§1)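 Under anaerobic conditions, OD578 was read hourly in a plate reader for at least three biological replicates of monocultures grown overnight in mGAM. Each culture started at an OD578 of 0.01 in pre-reduced plates holding twofold drug dilutions and 1% DMSO (or water). IC25 was reported as a tested interval: the lowest concentration where the monotonic median area under the growth curve dropped below the cutoff. That cutoff was 0.75.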

[2] = test system: Bacteroides thetaiotaomicron; test: IC25 growth inhibition; higher = less potent
Summary of the method: as §1

[3] = test system: Bacteroides uniformis; test: IC25 growth inhibition; higher = less potent
Summary of the method: as §1

[4] = test system: Bacteroides vulgatus; test: IC25 growth inhibition; higher = less potent
Summary of the method: as §1

[5] = test system: Clostridium bolteae; test: IC25 growth inhibition; higher = less potent
Summary of the method: as §1

[6] = test system: Clostridium perfringens; test: IC25 growth inhibition; higher = less potent
Summary of the method: as §1

[7] = test system: Clostridium ramosum; test: IC25 growth inhibition; higher = less potent
Summary of the method: as §1

[8] = test system: Clostridium saccharolyticum; test: IC25 growth inhibition; higher = less potent
Summary of the method: as §1

[9] = test system: Collinsella aerofaciens; test: IC25 growth inhibition; higher = less potent
Summary of the method: as §1

[10] = test system: Coprococcus comes; test: IC25 growth inhibition; higher = less potent
Summary of the method: as §1

[11] = test system: Dorea formicigenerans; test: IC25 growth inhibition; higher = less potent
Summary of the method: as §1

[12] = test system: Escherichia coli ED1a; test: IC25 growth inhibition; higher = less potent
Summary of the method: as §1

[13] = test system: Eubacterium rectale; test: IC25 growth inhibition; higher = less potent
Summary of the method: as §1

[14] = test system: Fusobacterium nucleatum subsp. Nucleatum; test: IC25 growth inhibition; higher = less potent
Summary of the method: as §1

[15] = test system: Parabacteroides merdae; test: IC25 growth inhibition; higher = less potent
Summary of the method: as §1

[16] = test system: Roseburia intestinalis; test: IC25 growth inhibition; higher = less potent
Summary of the method: as §1

[17] = test system: Ruminococcus gnavus; test: IC25 growth inhibition; higher = less potent
Summary of the method: as §1

[18] = test system: Salmonella enterica typhimurium; test: IC25 growth inhibition; higher = less potent
Summary of the method: as §1

[19] = test system: Shigella flexneri; test: IC25 growth inhibition; higher = less potent
Summary of the method: as §1

[20] = test system: Streptococcus parasanguinis; test: IC25 growth inhibition; higher = less potent
Summary of the method: as §1

[21] = test system: Streptococcus salivarius; test: IC25 growth inhibition; higher = less potent
Summary of the method: as §1

[22] = test system: Vibrio cholerae; test: IC25 growth inhibition; higher = less potent
Summary of the method: as §1

[23] = test system: Yersinia enterocolitica WA-314; test: IC25 growth inhibition; higher = less potent
Summary of the method: as §1

[24] = test system: Yersinia pseudotuberculosis; test: IC25 growth inhibition; higher = less potent
Summary of the method: as §1

[25] = test system: Com21 synthetic gut community; test: community biomass OD578 after 24 h drug treatment relative to untreated (fraction of untreated control); higher = more community growth; conditions: community: Com21 (Com20 + E. coli ED1a)
Description: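 Com21 (Com20 plus E. coli ED1a) was treated with drug for 24 h under anaerobic conditions in mGAM. Community OD578 was then measured and normalised to untreated Com21; mean of 3 biological replicates.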

[26] = drug pretreatment concentration 10 µM
[27] = drug pretreatment concentration 20 µM
[28] = drug pretreatment concentration 40 µM
[29] = drug pretreatment concentration 80 µM
[30] = drug pretreatment concentration 160 µM
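For IC25 growth inhibition in this document: lowest concentration where monotonic median growth AUC falls below 0.75 of drug-free control.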

| SMILES | IC25 growth inhibition [1] [µM] | IC25 growth inhibition [2] [µM] | IC25 growth inhibition [3] [µM] | IC25 growth inhibition [4] [µM] | IC25 growth inhibition [5] [µM] | IC25 growth inhibition [6] [µM] | IC25 growth inhibition [7] [µM] | IC25 growth inhibition [8] [µM] | IC25 growth inhibition [9] [µM] | IC25 growth inhibition [10] [µM] | IC25 growth inhibition [11] [µM] | IC25 growth inhibition [12] [µM] | IC25 growth inhibition [13] [µM] | IC25 growth inhibition [14] [µM] | IC25 growth inhibition [15] [µM] | IC25 growth inhibition [16] [µM] | IC25 growth inhibition [17] [µM] | IC25 growth inhibition [18] [µM] | IC25 growth inhibition [19] [µM] | IC25 growth inhibition [20] [µM] | IC25 growth inhibition [21] [µM] | IC25 growth inhibition [22] [µM] | IC25 growth inhibition [23] [µM] | IC25 growth inhibition [24] [µM] | community biomass OD578 [25, 26] | community biomass OD578 [25, 27] | community biomass OD578 [25, 28] | community biomass OD578 [25, 29] | community biomass OD578 [25, 30] | community biomass OD578 ([25]; drug pretreatment concentration 2.5 µM) | community biomass OD578 ([25]; drug pretreatment concentration 5 µM) |
| --- | --- | --- | --- | --- | --- | --- | --- | --- | --- | --- | --- | --- | --- | --- | --- | --- | --- | --- | --- | --- | --- | --- | --- | --- | --- | --- | --- | --- | --- | --- | --- |
| CC(C)(C)c1ccc(C(O)CCCN2CCC(C(O)(c3ccccc3)c3ccccc3)CC2)cc1 (centres undefined) [Terfenadine] | ≤ 80 | ≤ 80 | ≤ 80 | ≤ 40 | ≤ 80 | ≤ 80 | > 80 | ≤ 40 | ≤ 20 | ≤ 80 | ≤ 20 | > 160 | ≤ 80 | ≤ 80 | ≤ 80 | ≤ 10 | ≤ 20 | > 160 | > 80 | ≤ 80 | ≤ 80 | > 40 | > 40 | > 80 | 0.953 | 0.96 | 0.863 | 0.542 | 0.35 | – | – |
| Nc1nc(=S)c2ncn([C@@H]3O[C@H](CO)[C@@H](O)[C@H]3O)c2[nH]1 [Thioguanosine] | > 40 | > 40 | > 40 | > 40 | > 40 | > 40 | > 40 | > 40 | > 40 | > 40 | > 40 | ≤ 2.5 | > 40 | > 40 | > 40 | > 40 | > 40 | > 40 | ≤ 2.5 | > 40 | > 40 | > 40 | > 40 | ≤ 20 | 1.02 | 1.05 | 1.01 | – | – | 1.01 | 1.01 |
| NC[C@H]1O[C@H](O[C@H]2[C@H](O)[C@@H](O[C@H]3O[C@H](CO)[C@@H](O)[C@H](N)[C@H]3O)[C@H](N)C[C@@H]2N)[C@H](N)C[C@@H]1O [Tobramycin] | > 160 | > 160 | > 160 | > 160 | > 160 | ≤ 20 | ≤ 160 | ≤ 10 | ≤ 10 | ≤ 40 | > 160 | ≤ 20 | ≤ 20 | ≤ 80 | > 160 | ≤ 10 | ≤ 40 | ≤ 160 | ≤ 40 | ≤ 5 | ≤ 5 | ≤ 160 | ≤ 40 | ≤ 20 | 1.01 | 0.969 | 0.972 | 0.983 | 0.992 | – | – |
| Cc1c(Cl)cccc1Nc1ccccc1C(=O)O [Tolfenamic acid] | ≤ 80 | ≤ 160 | ≤ 160 | ≤ 80 | > 160 | ≤ 160 | ≤ 80 | ≤ 160 | > 160 | ≤ 80 | > 160 | > 160 | > 160 | ≤ 40 | ≤ 40 | > 160 | ≤ 80 | > 160 | > 160 | > 160 | ≤ 160 | ≤ 80 | > 160 | > 160 | 0.991 | 0.971 | 0.962 | 0.923 | 0.864 | – | – |
| CCOC1O[C@H]([C@@H](COCc2ccccc2)OCc2ccccc2)[C@H](OCc2ccccc2)[C@H]1O (some centres undefined) [Tribenoside] | > 40 | > 40 | > 40 | > 40 | > 80 | > 80 | > 40 | > 80 | > 40 | > 40 | > 20 | > 20 | > 40 | > 40 | > 40 | > 80 | > 40 | > 40 | > 40 | > 40 | > 80 | > 40 | ≤ 160 | > 40 | 0.995 | 0.955 | 0.976 | 0.945 | 0.947 | – | – |
| COc1cc(C(=O)NS(=O)(=O)c2ccccc2C)ccc1Cc1cn(C)c2ccc(NC(=O)OC3CCCC3)cc12 [Zafirlukast] | ≤ 80 | ≤ 80 | ≤ 80 | ≤ 40 | ≤ 80 | ≤ 10 | ≤ 10 | ≤ 80 | ≤ 80 | ≤ 20 | ≤ 40 | > 160 | ≤ 80 | > 80 | ≤ 40 | ≤ 20 | ≤ 20 | > 80 | > 160 | ≤ 20 | ≤ 10 | > 80 | > 80 | > 80 | 0.904 | 0.876 | 0.825 | 0.81 | 0.841 | – | – |
